Data as given in ChEMBL document CHEMBL1909046, “DrugMatrix in vitro pharmacology data”.

Tests used:
[1] = target: Beta-1 adrenergic receptor (Homo sapiens, UniProt P08588); test: DRUGMATRIX: Adrenergic beta1 radioligand binding (ligand: [125I] Cyanopindolol); assay type: cell membranes, CHO-K1, Membrane; settings: cho-k1; Not Active = under 50% inhibition at 10 µM
[2] = target: Beta-2 adrenergic receptor (Homo sapiens, UniProt P07550); test: DRUGMATRIX: Adrenergic beta2 radioligand binding (ligand: [3H] CGP-12177); assay type: cell membranes, CHO, Membrane; settings: cho; Not Active = under 50% inhibition at 10 µM
[3] = target: Sigma non-opioid intracellular receptor 1 (Homo sapiens, UniProt Q99720); test: DRUGMATRIX: Sigma1 radioligand binding (ligand: [3H] Haloperidol); assay type: cell membranes, Jurkat, Membrane; settings: jurkat; Not Active = under 50% inhibition at 10 µM
[4] = target: Tyrosine-protein kinase Lck (Homo sapiens, UniProt P06239); test: DRUGMATRIX: Protein Tyrosine Kinase, LCK enzyme inhibition (substrate: Poly(Glu:Tyr)); assay type: cell-based, Insect cells; settings: insect cells; Not Active = under 50% inhibition at 10 µM
Glucocorticoid receptor = target: T1, Glucocorticoid receptor (Homo sapiens, UniProt P04150); test: biochemical; further: in other assays of this panel Not Active means under 50% inhibition at 10 µM
T1 sequence (P04150 whole entry): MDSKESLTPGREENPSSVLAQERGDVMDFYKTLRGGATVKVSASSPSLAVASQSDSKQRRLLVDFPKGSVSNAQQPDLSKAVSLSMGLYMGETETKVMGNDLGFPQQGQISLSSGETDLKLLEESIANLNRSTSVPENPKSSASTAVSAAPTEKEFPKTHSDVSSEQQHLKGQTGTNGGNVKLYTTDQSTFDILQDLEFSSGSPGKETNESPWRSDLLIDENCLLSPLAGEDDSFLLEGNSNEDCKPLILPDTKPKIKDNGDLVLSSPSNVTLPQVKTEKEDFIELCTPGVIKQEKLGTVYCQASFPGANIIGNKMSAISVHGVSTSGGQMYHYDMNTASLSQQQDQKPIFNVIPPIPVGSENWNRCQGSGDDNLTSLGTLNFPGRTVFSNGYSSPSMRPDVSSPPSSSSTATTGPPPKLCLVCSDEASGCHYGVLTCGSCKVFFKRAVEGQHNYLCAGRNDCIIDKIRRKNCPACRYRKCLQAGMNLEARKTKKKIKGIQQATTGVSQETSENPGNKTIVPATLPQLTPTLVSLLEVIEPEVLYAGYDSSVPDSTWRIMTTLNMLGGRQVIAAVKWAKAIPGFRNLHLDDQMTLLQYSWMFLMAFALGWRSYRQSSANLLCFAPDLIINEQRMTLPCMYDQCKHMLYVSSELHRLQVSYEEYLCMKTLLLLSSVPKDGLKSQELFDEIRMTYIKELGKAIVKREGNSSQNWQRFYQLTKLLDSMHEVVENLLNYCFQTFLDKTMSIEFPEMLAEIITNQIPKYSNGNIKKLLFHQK

Androgen receptor = target: T2, Androgen receptor (Rattus norvegicus, UniProt P15207); further: in other assays of this panel Not Active means under 50% inhibition at 10 µM
T2 sequence (P15207 whole entry): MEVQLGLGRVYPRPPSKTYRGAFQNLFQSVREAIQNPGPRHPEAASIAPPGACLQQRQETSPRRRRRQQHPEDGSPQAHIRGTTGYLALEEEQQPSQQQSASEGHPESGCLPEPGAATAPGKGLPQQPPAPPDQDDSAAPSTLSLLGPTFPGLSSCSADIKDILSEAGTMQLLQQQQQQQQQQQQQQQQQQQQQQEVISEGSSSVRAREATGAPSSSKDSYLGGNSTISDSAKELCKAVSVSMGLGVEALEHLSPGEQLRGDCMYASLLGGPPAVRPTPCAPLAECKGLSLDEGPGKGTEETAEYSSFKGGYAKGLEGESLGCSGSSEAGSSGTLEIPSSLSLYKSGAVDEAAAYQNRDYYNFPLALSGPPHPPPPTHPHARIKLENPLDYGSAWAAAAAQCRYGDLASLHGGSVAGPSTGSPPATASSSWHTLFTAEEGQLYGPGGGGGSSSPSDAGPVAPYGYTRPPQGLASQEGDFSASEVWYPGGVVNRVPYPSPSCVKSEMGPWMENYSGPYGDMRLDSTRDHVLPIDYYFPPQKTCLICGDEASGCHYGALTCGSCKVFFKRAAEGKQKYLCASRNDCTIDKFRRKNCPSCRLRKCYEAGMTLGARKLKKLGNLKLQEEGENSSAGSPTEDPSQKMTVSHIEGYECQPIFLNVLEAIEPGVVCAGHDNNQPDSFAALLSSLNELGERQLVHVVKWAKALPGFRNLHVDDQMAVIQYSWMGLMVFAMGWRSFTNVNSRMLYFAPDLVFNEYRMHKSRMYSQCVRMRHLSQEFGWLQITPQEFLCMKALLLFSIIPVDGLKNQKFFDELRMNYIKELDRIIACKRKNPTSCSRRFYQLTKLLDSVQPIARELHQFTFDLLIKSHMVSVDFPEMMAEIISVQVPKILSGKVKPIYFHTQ

Chain of Tyrosine-protein kinase Lck (P06239 whole entry): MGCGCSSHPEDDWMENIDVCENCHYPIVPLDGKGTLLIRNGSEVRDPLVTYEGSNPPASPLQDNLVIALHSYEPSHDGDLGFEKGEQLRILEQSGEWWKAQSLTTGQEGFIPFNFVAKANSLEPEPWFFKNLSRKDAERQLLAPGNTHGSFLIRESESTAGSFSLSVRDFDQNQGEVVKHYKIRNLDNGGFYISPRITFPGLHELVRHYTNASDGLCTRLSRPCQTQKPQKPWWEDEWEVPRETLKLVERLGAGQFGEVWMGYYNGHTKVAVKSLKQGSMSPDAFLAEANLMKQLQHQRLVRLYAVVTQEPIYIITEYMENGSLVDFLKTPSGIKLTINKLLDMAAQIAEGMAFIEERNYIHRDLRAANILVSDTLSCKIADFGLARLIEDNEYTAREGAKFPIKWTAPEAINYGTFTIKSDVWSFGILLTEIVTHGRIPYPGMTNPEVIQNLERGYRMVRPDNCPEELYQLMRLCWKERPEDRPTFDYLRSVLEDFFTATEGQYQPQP
Chain of Beta-2 adrenergic receptor (P07550 whole entry): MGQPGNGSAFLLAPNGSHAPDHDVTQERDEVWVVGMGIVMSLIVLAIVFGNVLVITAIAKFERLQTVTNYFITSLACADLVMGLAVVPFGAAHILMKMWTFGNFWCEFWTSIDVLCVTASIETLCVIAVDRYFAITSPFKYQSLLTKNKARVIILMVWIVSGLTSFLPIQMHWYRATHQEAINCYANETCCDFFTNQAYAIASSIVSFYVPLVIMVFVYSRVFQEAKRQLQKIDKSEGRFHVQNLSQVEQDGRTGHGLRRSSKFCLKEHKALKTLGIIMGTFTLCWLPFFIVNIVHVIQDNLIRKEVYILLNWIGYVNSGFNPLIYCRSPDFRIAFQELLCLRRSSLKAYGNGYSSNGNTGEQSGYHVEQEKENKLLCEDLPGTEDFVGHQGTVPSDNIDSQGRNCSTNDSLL
Chain of Sigma non-opioid intracellular receptor 1 (Q99720 whole entry): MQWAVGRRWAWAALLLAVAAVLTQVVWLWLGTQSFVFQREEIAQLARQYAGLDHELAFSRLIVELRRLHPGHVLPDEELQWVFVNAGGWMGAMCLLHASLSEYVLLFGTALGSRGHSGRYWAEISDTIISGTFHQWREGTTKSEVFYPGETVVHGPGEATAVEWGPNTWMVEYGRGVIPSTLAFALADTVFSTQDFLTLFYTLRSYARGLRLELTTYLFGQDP
Chain of Beta-1 adrenergic receptor (P08588 whole entry): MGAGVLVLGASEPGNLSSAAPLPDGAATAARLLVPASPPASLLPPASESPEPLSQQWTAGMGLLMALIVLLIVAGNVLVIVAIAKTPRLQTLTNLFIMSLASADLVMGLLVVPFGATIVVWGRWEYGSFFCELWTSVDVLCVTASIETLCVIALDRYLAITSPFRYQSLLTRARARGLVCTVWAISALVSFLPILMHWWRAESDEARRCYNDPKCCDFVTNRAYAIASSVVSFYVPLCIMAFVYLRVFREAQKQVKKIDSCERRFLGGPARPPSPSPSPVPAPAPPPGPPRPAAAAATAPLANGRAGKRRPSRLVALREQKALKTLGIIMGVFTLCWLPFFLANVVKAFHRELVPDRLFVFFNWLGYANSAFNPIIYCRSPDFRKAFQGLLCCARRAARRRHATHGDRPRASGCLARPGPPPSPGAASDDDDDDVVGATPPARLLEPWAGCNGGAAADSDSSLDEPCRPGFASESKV

SMILES | IC50 [1] | IC50 [2] | IC50 [3] | IC50 [4] | IC50 (Glucocorticoid receptor) | Ki (Glucocorticoid receptor) | IC50 (Androgen receptor)
C#C[C@]1(O)CC[C@H]2[C@@H]3CCC4=Cc5oncc5C[C@]4(C)[C@H]3CC[C@@]21C [DANAZOL] | Not Active | Not Active | Not Active | Not Active | 4310 nM | 1960 nM | 
CC(=O)O[C@]1(C(C)=O)CC[C@H]2[C@@H]3C=C(C)C4=CC(=O)CC[C@]4(C)[C@H]3CC[C@@]21C [MEGESTROL ACETATE] | Not Active | Not Active | Not Active | Not Active | 19 nM | 8.77 nM | 
C#C[C@]1(O)CC[C@H]2[C@@H]3CCc4cc(O)ccc4[C@H]3CC[C@@]21C [ETHINYL ESTRADIOL] | Not Active | Not Active | Not Active | Not Active | 1710 nM | 777 nM | 
COc1ccc(Cc2nccc3cc(OC)c(OC)cc23)cc1OC [PAPAVERINE] | Not Active | Not Active | Not Active | Not Active |  |  | Not Active
O=c1cc(-c2ccccc2)oc2ccc3ccccc3c12 [BETA-NAPHTHOFLAVONE] | Not Active | Not Active | Not Active | Not Active |  |  | Not Active
Nn1nnc2ccccc21 | Not Active | Not Active | Not Active | Not Active |  |  | Not Active
O=C(O)Cc1ccc(-c2ccccc2)cc1 [FELBINAC] | Not Active | Not Active | Not Active | Not Active |  |  | Not Active
